Measured values taken from patent US8207177B2, “Inhibitors of E1 activating enzymes” (Millennium Pharmaceuticals, Inc., priority 2006, dated 2012).

Target: T1, recombinant human NAE enzyme (Homo sapiens, UniProt Q8TBC4)
T1 construct: His (N); made in house; host or cells: Sf9 insect cells (baculovirus, Bac-to-Bac), purified on Ni-NTA
T1 sequence (Q8TBC4 1-463): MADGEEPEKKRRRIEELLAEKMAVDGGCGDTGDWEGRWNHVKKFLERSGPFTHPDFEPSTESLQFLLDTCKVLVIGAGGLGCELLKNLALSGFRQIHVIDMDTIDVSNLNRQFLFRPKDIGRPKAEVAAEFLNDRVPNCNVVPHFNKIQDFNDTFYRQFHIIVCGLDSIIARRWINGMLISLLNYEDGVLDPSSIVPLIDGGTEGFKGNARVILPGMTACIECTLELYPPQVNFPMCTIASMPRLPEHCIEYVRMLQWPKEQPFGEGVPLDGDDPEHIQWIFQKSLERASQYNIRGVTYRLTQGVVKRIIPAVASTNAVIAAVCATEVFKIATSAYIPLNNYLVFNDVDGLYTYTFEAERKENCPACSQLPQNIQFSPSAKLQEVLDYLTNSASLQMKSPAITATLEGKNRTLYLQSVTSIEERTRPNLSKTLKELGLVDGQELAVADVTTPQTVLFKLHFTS
T1 sequence (Q13564 1-534 partner): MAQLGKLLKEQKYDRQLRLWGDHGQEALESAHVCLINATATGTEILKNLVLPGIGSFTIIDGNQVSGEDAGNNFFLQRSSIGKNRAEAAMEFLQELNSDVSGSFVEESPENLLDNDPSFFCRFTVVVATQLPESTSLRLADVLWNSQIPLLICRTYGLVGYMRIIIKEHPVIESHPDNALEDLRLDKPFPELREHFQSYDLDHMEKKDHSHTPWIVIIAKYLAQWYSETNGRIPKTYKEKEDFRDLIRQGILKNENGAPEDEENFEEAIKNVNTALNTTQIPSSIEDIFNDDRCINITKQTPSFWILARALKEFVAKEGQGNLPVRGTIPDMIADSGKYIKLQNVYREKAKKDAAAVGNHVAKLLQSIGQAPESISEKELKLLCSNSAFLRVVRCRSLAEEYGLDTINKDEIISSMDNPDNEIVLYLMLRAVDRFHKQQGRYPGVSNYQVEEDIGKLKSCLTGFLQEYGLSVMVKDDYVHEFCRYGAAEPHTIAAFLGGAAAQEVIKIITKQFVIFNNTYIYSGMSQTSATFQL
Assay: Nedd8-Activating Enzyme (NAE) HTRF Assay
Format: biochemical
Conditions: threshold statement: less than or equal to 100 nM; 20 μM ATP, 90 minutes at 24° C.
Method: Following manufacturer instructions, baculoviruses were generated with the Bac-to-Bac Expression System (Invitrogen) for the following proteins: untagged NAEα (APPBP1; NP_003896.1), N-terminally His-tagged NAEβ (UBE1C; NP_003959.3), untagged SAEα (SAE1; NP_005491.1), N-terminally His-tagged SAEβ (UBA2; NP_005490.1), N-terminally His-tagged murine UAE (UBE1X; NP_033483). NAEα/His-NAEβ and SAEα/His-SAEβ complexes were generated by co-infection of Sf9 cells, which were harvested after 48 hours. His-mUAE was generated by single infection of Sf9 cells and harvested after 72 hours. Expressed proteins were purified by affinity chromatography (Ni—NTA agarose, Qiagen) using standard buffers. Ubc12 (UBE2M; NP_003960.1), Ubc9 (UBE2I; NP_003336.1), Ubc2 (UBE2A; NP_003327.2) were subcloned into pGEX (Pharmacia) and expressed as N-terminally GST tagged fusion proteins in E. coli. Expressed proteins were purified by conventional affinity chromatography using standard buffers. Nedd8 (NP_006147), Sumo-1 (NP_003343) and Ubiquitin (with optimized codons) were subcloned into pFLAG-2 (Sigma) and expressed as N-terminally Flag tagged fusion proteins in E. coli. Expressed proteins were purified by conventional chromatography using standard buffers. Nedd8-Activating Enzyme (NAE) HTRF Assay. The NAE enzymatic reaction totaled 50 μL and contained 50 mM HEPES (pH 7.5), 0.05% BSA, 5 mM MgCl2, 20 μM ATP, 250 μM GSH, 0.01 μM Ubc12-GST, 0.075 μM Nedd8-Flag and 0.28 nM recombinant human NAE enzyme. The enzymatic reaction mixture, with and without compound inhibitor, was incubated at 24° C. for 90 minutes in a 384-well plate before termination with 25 μL of Stop/Detection buffer (0.1M HEPES pH 7.5, 0.05% Tween20, 20 mM EDTA, 410 mM KF, 0.53 nM Europium-Cryptate labeled monoclonal anti-FLAG M2 antibody (CisBio International) and 8.125 μg/mL PHYCOLINK goat anti-GST allophycocyanin (XL-APC) antibody (Prozyme)). After incubation for 3 hours at 24° C., quantification of the FRET was performed on the Analyst™ HT 96.384 (Molecular Devices).

| SMILES | IC50 |
| --- | --- |
| CC(C)O[C@H]1Cc2ccccc2[C@H]1Nc1ncnc2c1ccn2[C@@H]1C[C@@H](COS(N)(=O)=O)[C@@H](O)C1 [Compound I-54, [(1S,2S,4R)-2-hydroxy-4-(4-{[(1R,2S)-2-isopropoxy-2,3-dihydro-1H-inden-1-yl]-amino}-7H-pyrrolo[2,3-d]pyrimidin-7-yl)cyclopentyl]methyl sulfamate] | ≤ 100 nM |
| C[C@@H]1Cc2ccccc2[C@@H]1Nc1ncnc2c1ccn2[C@@H]1C[C@@H](COS(N)(=O)=O)[C@@H](O)C1 [Compound I-81, [(1S,2S,4R)-2-hydroxy-4-(4-{[(1R,2R)-2-methyl-2,3-dihydro-1H-inden-1-yl]amino)-7H-pyrrolo[2,3-d]pyrimidin-7-yl)cyclopentyl]methyl sulfamate] | ≤ 100 nM |
| NS(=O)(=O)OC[C@@H]1C[C@@H](n2cc(F)c3c(NCc4ccccc4)ncnc32)C[C@@H]1O [Compound I-31, {(1S,2S,4R)-4-[4-(benzylamino)-5-fluoro-7H-pyrrolo[2,3-d]pyrimidin-7-yl]-2-hydroxycyclopentyl}methyl sulfamate] | ≤ 100 nM |
| NS(=O)(=O)NC[C@@H]1C[C@@H](n2ccc3c(N[C@H]4CCc5ccccc54)ncnc32)C[C@@H]1O [Compound I-56, N-[((1S,2S,4R)-4-{4-[(1S)-2,3-dihydro-1H-inden-1-ylamino]-7H-pyrrolo[2,3-d]-pyrimidin-7-yl}-2-hydroxycyclopentyl)methyl]sulfamide] | ≤ 100 nM |
| NS(=O)(=O)OC[C@@H]1C[C@@H](n2ccc3c(N[C@H]4CCc5ccccc54)ncnc32)[C@H](O)[C@@H]1O [Compound I-17, ((1S,2R,3S,4R)-4-{4-[(1S)-2,3-dihydro-1H-inden-1-ylamino]-7H-pyrrolo[2,3-d]-pyrimidin-7-yl}-2,3-dihydroxycyclopentyl)methyl sulfamate] | ≤ 100 nM |
| NS(=O)(=O)OC[C@@H]1C[C@@H](n2ccc3c(N[C@H]4CCCc5ccccc54)ncnc32)C[C@@H]1O [Compound I-37, ((1S,2S,4R)-2-hydroxy-4-{4-[(1S)-1,2,3,4-tetrahydronaphthalen-1-ylamino]-7H-pyrrolo[2,3-d]pyrimidin-7-yl}cyclopentyl)methyl sulfamate] | ≤ 100 nM |
| NS(=O)(=O)OC[C@@H]1C[C@@H](n2ccc3c(NCc4cc(Cl)cc(Cl)c4)ncnc32)C[C@@H]1O [Compound I-16, ((1S,2S,4R)-4-{4-[(3,5-dichlorobenzyl)amino]-7H-pyrrolo[2,3-d]pyrimidin-7-yl}-2-hydroxycyclopentyl)methyl sulfamate] | ≤ 100 nM |
| NS(=O)(=O)OC1CC(n2ccc3c(N[C@H]4CCc5ccccc54)ncnc32)CC1O (stereo in doubt) [Compound I-78, (1R,2S,4S)-4-{4-[(1S)-2,3-dihydro-1H-inden-1-ylamino]-7H-pyrrolo[2,3-d]pyrimidin-7-yl}-2-hydroxycyclopentyl sulfamate] | ≤ 100 nM |
| CNc1ncnc2c1ccn2[C@@H]1C[C@@H](COS(N)(=O)=O)[C@@H](O)C1 [Compound I-40, {(1S,2S,4R)-2-hydroxy-4-[4-(methylamino)-7H-pyrrolo[2,3-d]pyrimidin-7-yl]-cyclopentyl}methyl sulfamate] | ≤ 100 nM |
| NS(=O)(=O)OC[C@@H]1C[C@@H](n2ccc3c(NCc4ccccc4Cl)ncnc32)C[C@@H]1O [Compound I-1, ((1S,2S,4R)-4-{4-[(2-chlorobenzyl)amino]-7H-pyrrolo[2,3-d]pyrimidin-7-yl}-2-hydroxycyclopentyl)methyl sulfamate] | ≤ 100 nM |
| NS(=O)(=O)OC[C@@H]1C[C@@H](n2ccc3c(NCc4ccc(Cl)cc4C(F)(F)F)ncnc32)C[C@@H]1O [Compound I-42, [(1S,2S,4R)-4-(4-{[4-chloro-2-(trifluoromethyl)benzyl]amino}-7H-pyrrolo[2,3-d]-pyrimidin-7-yl)-2-hydroxycyclopentyl]methyl sulfamate] | ≤ 100 nM |
| NS(=O)(=O)OC[C@@H]1C[C@@H](n2ccc3c(NCC4CC4)ncnc32)C[C@@H]1O [Compound I-25, ((1S,2S,4R)-4-{4-[(cyclopropylmethyl)amino]-7H-pyrrolo[2,3-d]pyrimidin-7-yl}-2-hydroxycyclopentyl)methyl sulfamate] | ≤ 100 nM |
| Cc1cc(Cl)ccc1CNc1ncnc2c1ccn2[C@@H]1C[C@@H](COS(N)(=O)=O)[C@@H](O)C1 [Compound I-48, ((1S,2S,4R)-4-{4-[(4-chloro-2-methylbenzyl)amino]-7H-pyrrolo[2,3-d]pyrimidin-7-yl}-2-hydroxycyclopentyl)methyl sulfamate] | ≤ 100 nM |
| NS(=O)(=O)OC[C@@H]1C[C@@H](n2ccc3c(NCc4ccccc4C(F)(F)F)ncnc32)C[C@@H]1O [Compound I-47, [(1S,2S,4R)-2-hydroxy-4-(4-{[2-(trifluoromethyl)benzyl]amino}-7H-pyrrolo-[2,3-d]pyrimidin-7-yl)cyclopentyl]methyl sulfamate] | ≤ 100 nM |

Results, then the molecule that gave them:

| IC50 | SMILES |
| --- | --- |
| ≤ 100 nM | NS(=O)(=O)OC[C@@H]1C[C@@H](n2ccc3c(NCc4ccc(Cl)cc4Cl)ncnc32)C[C@@H]1O [Compound I-19, ((1S,2S,4R)-4-{4-[(2,4-dichlorobenzyl)amino]-7H-pyrrolo[2,3-d]pyrimidin-7-yl}-2-hydroxycyclopentyl)methyl sulfamate] |
| ≤ 100 nM | NS(=O)(=O)OC[C@@H]1C[C@@H](n2ccc3c(N[C@H]4CCc5c(F)cccc54)ncnc32)C[C@@H]1O [Compound I-61, [(1S,2S,4R)-4-(4-{[(1S)-4-fluoro-2,3-dihydro-1H-inden-1-yl]amino}-7H-pyrrolo[2,3-d]pyrimidin-7-yl)-2-hydroxycyclopentyl]methyl sulfamate] |
| ≤ 100 nM | Cc1cc(CNc2ncnc3c2ccn3[C@@H]2C[C@@H](COS(N)(=O)=O)[C@@H](O)C2)no1 [Compound I-41, [(1S,2S,4R)-2-hydroxy-4-(4-{[(5-methylisoxazol-3-yl)methyl]amino}-7H-pyrrolo-[2,3-d]pyrimidin-7-yl)cyclopentyl]methyl sulfamate] |
| ≤ 100 nM | CO[C@H]1Cc2ccccc2[C@H]1Nc1ncnc2c1c(F)cn2[C@@H]1C[C@@H](COS(N)(=O)=O)[C@@H](O)C1 [Compound I-69, [(1S,2S,4R)-4-(5-fluoro-4-{[(1R,2S)-2-methoxy-2,3-dihydro-1H-inden-1-yl]amino}-7H-pyrrolo[2,3-d]pyrimidin-7-yl)-2-hydroxycyclopentyl]methyl sulfamate] |
| ≤ 100 nM | NS(=O)(=O)OC[C@@H]1C[C@@H](n2ccc3c(N[C@H]4CCc5c(Cl)cccc54)ncnc32)C[C@@H]1O [Compound I-64, [(1S,2S,4R)-4-(4-{[(1S)-4-chloro-2,3-dihydro-1H-inden-1-yl]amino}-7H-pyrrolo[2,3-d]pyrimidin-7-yl)-2-hydroxycyclopentyl]methyl sulfamate] |
| ≤ 100 nM | CO[C@H]1Cc2ccccc2[C@H]1Nc1ncnc2c1ccn2[C@@H]1C[C@@H](CNS(N)(=O)=O)[C@@H](O)C1 [Compound I-74, N-{[(1S,2S,4R)-2-hydroxy-4-(4-{[(1R,2S)-2-methoxy-2,3-dihydro-1H-inden-1-yl]amino}-7H-pyrrolo[2,3-d]pyrimidin-7-yl)cyclopentyl]methyl}sulfamide] |
